Results published in patent US10323000B2, “Indole derivatives and their use in neurodegenerative diseases” (priority 2014, dated 2019).
Read-outs that look alike come from different tables or passages of the source.

How the values were obtained:
human P2X7 receptor = human P2X7 receptor (Homo sapiens (Human), UniProt Q99572); assay: Pore permeation assay (YO PRO dye uptake); format: cell-based
[1] = target: P2X7 (IL-1β release from THP-1 cells) (Homo sapiens (Human), UniProt Q99572); assay: IL-1β release assay; format: cell-based
Sequence of P2X7 (IL-1β release from THP-1 cells) (Q99572 whole entry): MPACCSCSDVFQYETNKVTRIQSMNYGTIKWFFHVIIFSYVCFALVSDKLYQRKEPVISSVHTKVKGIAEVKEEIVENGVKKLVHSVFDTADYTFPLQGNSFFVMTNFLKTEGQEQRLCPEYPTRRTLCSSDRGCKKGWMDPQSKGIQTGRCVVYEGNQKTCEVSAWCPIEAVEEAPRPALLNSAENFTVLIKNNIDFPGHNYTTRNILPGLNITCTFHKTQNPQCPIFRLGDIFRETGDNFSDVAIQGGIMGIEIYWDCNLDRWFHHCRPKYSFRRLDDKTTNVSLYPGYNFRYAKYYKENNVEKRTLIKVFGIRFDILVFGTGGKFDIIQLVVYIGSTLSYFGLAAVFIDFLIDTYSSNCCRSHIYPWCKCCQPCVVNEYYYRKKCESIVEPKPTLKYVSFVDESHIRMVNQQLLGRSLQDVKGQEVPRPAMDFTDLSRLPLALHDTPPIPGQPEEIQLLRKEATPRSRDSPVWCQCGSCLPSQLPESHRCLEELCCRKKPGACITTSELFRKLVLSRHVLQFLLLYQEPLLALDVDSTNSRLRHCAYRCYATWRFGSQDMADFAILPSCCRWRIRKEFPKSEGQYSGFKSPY
Outline: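 THP-1 cells were differentiated with PMA 0.5 μM and primed 4 h with LPS 10 ng/ml. They were then pre-incubated 20 min with compound at 37° C and stimulated 30 min with BzATP 0.8 mM. Mature IL-1β released into the supernatant was quantified by sandwich ELISA.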

[2] = HEK293 transfected with human P2X7, BzATP 10 uM, YO PRO dye uptake, read-out: hP2X7 IC50

Sequence of human P2X7 receptor (Q99572 whole entry): as above

SMILES | IC50 (human P2X7 receptor) [nM] | IC50 [1] [nM] | IC50 (human P2X7 receptor; [2]) [nM] | IC50 ([1]; THP-1 cells, LPS primed, 0.8 mM BzATP, mature IL-1β by sandwich ELISA, read-out: hTHP-1/IL-ib IC50) [nM]
O=C(NCC1(O)CCC(F)(F)CC1)c1cn(CCC(F)(F)F)c2cccc(Cl)c12 [Compound 12, 4-chloro-N-((4,4-difluoro-1-hydroxycyclohexyl)methyl)-1-(3,3,3-trifluoropropyl)-1H-indole-3-carboxamide] | 101 to 500 | 500 to 999 | – | –
O=C(NCC[C@@H]1C[C@@H]2C=C[C@H]1C2)c1cn(C2COC2)c2cccc(Cl)c12 [Compound 75, 4-Chloro-1-oxetan-3-yl-1H-indole-3-carboxylic acid ((1S,2S,4S)-2-bicyclo[2.2.1]hept-5-en-2-yl-ethyl)-amide] | – | 10 to 100 | < 10 | –
CN(C)C(=O)Cn1cc(C(=O)NCC2CCC(F)(F)CC2)c2c(Cl)cccc21 [Compound 208, 4-Chloro-1-dimethylcarbamoylmethyl-1H-indole-3-carboxylic acid (4,4-difluoro-cyclohexylmethyl)-amide] | – | 10 to 100 | < 10 | –
COCCn1cc(C(=O)NCC2(O)CCCCC2O)c2c(Cl)cccc21 (centres unmarked) [Compound 18, 4-Chloro-1-(2-methoxy-ethyl)-1H-indole-3-carboxylic acid (1,2-dihydroxy-cyclohexylmethyl)-amide] | – | – | > 1000 | > 1000
COCCn1cc(C(=O)NC[C@@]2(O)CCCC(F)(F)C2)c2c(Cl)cccc21 [Compound 21, (R)-4-chloro-N-((3,3-difluoro-1-hydroxycyclohexyl)methyl)-1-(2-methoxyethyl)-1H-indole-3-carboxamide] | – | 10 to 100 | < 10 | –
O=C1CC[C@H](Cn2cc(C(=O)NCC3CCC(F)(F)CC3)c3c(Cl)cccc32)N1 [Compound 162, (R)-4-chloro-N-((4,4-difluorocyclohexyl)methyl)-1-((5-oxopyrrolidin-2-yl)methyl)-1H-indole-3-carboxamide] | 10 to 100 | 10 to 100 | – | –
COCCn1cc(C(=O)NCC2CCC(F)(F)CC2)c2c(C(F)(F)F)cccc21 [Compound 199] | 101 to 500 | 101 to 500 | – | –
O=C(NCC1(O)CCCC(F)(F)C1)c1cn(C2CCNC2)c2cccc(Cl)c12 (centres unmarked) [Compound 120, 4-chloro-N-((3,3-difluoro-1-hydroxycyclohexyl)methyl)-1-(pyrrolidin-3-yl)-1H-indole-3-carboxamide] | 10 to 100 | 10 to 100 | – | –
O=C(NCC1CCC(F)(F)CC1)c1cn(CC2CCNCC2)c2cccc(Cl)c12 [Compound 175, 4-chloro-N-((4,4-difluorocyclohexyl)methyl)-1-(piperidin-4-ylmethyl)-1H-indole-3-carboxamide] | 101 to 500 | 101 to 500 | – | –
O=C(NCC1(O)CCCC(F)(F)C1)c1cn(CC2CCNC2)c2cccc(Cl)c12 (centres unmarked) [Compound 159, 4-chloro-N-((3,3-difluoro-1-hydroxycyclohexyl)methyl)-1-(pyrrolidin-3-ylmethyl)-1H-indole-3-carboxamide] | 10 to 100 | 101 to 500 | – | –
O=C(NCC1(O)CCCCCC1)c1cn(C2COC2)c2cccc(Cl)c12 [Compound 65, 4-Chloro-1-oxetan-3-yl-1H-indole-3-carboxylic acid (1-hydroxy-cycloheptylmethyl)-amide] | 10 to 100 | 101 to 500 | – | –
O=C(NCC1CCC(F)(F)CC1)c1cn(C2CCOC2)c2cccc(Cl)c12 (centres unmarked) [Compound 114, 4-chloro-N-((4,4-difluorocyclohexyl)methyl)-1-(tetrahydrofuran-3-yl)-1H-indole-3-carboxamide] | 10 to 100 | 101 to 500 | – | –
O=C(NCC1CCC(F)(F)CC1)c1cn(C[C@H]2CCN2)c2cccc(Cl)c12 [Compound 123, (R)-1-(azetidin-2-ylmethyl)-4-chloro-N-((4,4-difluorocyclohexyl)methyl)-1H-indole-3-carboxamide] | 101 to 500 | 101 to 500 | – | –
